{
  "source": "patent US10852236B2",
  "about": "“Method of measuring plant nutrient transport using near-infrared imaging” (Curadel, LLC, priority 2017, dated 2020)",
  "key": {"[1]": {"test": "solubility of the dye in the plant nutrient", "format": "physicochemical", "conditions": "dye in its small molecule form; nutrient may be water"}, "[2]": {"test": "in vivo early half-life of the dye", "conditions": "dye in its small molecule form"}},
  "data": [
    {"compound": "CC1(C)C(/C=C/C=C/C=C/C=C2\\N(CCCCS(=O)(=O)O)c3ccc4ccccc4c3C2(C)C)=[N+](CCCCS(=O)(=O)[O-])c2ccc3ccccc3c21", "note": "[Indocyanine green, indocyanine green]", "values": [
      {"measurement": "solubility in the nutrient", "setting": "[1]", "result": "somewhat less soluble"},
      {"measurement": "in vivo early half-life", "setting": "[2]", "result": "shorter"}
    ]}
  ]
}
